Source: PubChem BioAssay AID1259411 (Chemical Carcinogenesis Research Information System (CCRIS), 2018)
Activity calls are given as the source filed them. No rule for the calls is given here.

Test system: rodent carcinogenicity bioassays, tumor incidence
Assay: CCRIS carcinogenicity studies
Summary of the method: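 Archive of carcinogenicity, mutagenicity, tumor promotion and tumor inhibition results drawn from journals, NCI reports and other sources, expert-reviewed; covers 1985-2011 and is no longer updated.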

CN[C@@H](C)[C@H](O)c1ccccc1
carcinogen call (Species: MOUSE, Strain/Sex: B6C3F1/FEMALE, Route: ORAL, Dose: 0, 125, 250 PPM IN DIET FOR 103 WK, Dose: 0, 125, 250 PPM IN DIET FOR 103 WK): inactive; negative | carcinogen call (Species: MOUSE, Strain/Sex: B6C3F1/MALE, Route: ORAL, Dose: 0, 125, 250 PPM IN DIET FOR 103 WK, Dose: 0, 125, 250 PPM IN DIET FOR 103 WK): inactive; negative | carcinogen call (Species: RAT, Strain/Sex: F344/FEMALE, Route: ORAL, Dose: 0, 125, 250 PPM IN DIET FOR 103 WK, Dose: 0, 125, 250 PPM IN DIET FOR 103 WK): inactive; negative | carcinogen call (Species: RAT, Strain/Sex: F344/MALE, Route: ORAL, Dose: 0, 125, 250 PPM IN DIET FOR 103 WK, Dose: 0, 125, 250 PPM IN DIET FOR 103 WK): inactive; negative

N#Cc1ccc(C/C(=N\NC(=O)Nc2ccc(OC(F)(F)F)cc2)c2cccc(C(F)(F)F)c2)cc1
carcinogen call (Species: Mouse, Strain/Sex: CD-1/Female (65/Group), Route: Oral, Dose: 0 (aqueous carboxymethylcellulose), 100, 250, 1000 mg/kg/day of 96.3% metaflumizone by gavage for 18 mo, study duration, Dose: 0 (aqueous carboxymethylcellulose), 100, 250, 1000 mg/kg/day of 96.3% metaflumizone by gavage for 18 mo, study duration): inactive; negative | carcinogen call (Species: Mouse, Strain/Sex: CD-1/Male (65/Group), Route: Oral, Dose: 0 (aqueous carboxymethylcellulose), 100, 250, 1000 mg/kg/day of 96.3% metaflumizone by gavage for 18 mo, study duration, Dose: 0 (aqueous carboxymethylcellulose), 100, 250, 1000 mg/kg/day of 96.3% metaflumizone by gavage for 18 mo, study duration): inactive; negative | carcinogen call (Species: Rat, Strain/Sex: Sprague-Dawley/Female (80/Group), Route: Oral, Dose: 0 (aqueous carboxymethylcellulose), 30, 60, 300 mg/kg/day (adjusted to 200 mg after 2 weeks of treatment) of 96.3% metaf, Dose: 0 (aqueous carboxymethylcellulose), 30, 60, 300 mg/kg/day (adjusted to 200 mg after 2 weeks of treatment) of 96.3% metaf): inactive; negative | carcinogen call (Species: Rat, Strain/Sex: Sprague-Dawley/Male (80/Group), Route: Oral, Dose: 0 (aqueous carboxymethylcellulose), 30, 60, 300 mg/kg/day of 96.3% metaflumizone by gavage for 24 mo, study duration 24, Dose: 0 (aqueous carboxymethylcellulose), 30, 60, 300 mg/kg/day of 96.3% metaflumizone by gavage for 24 mo, study duration 24): inactive; negative

CCC1(c2ccccc2)C(=O)NCNC1=O
carcinogen call (Species: MOUSE, Strain/Sex: B6C3F1/FEMALE, Route: ORAL, Dose: 0, 300, 600, 1300 PPM IN DIET FOR 104 WK (STUDY DURATION: 104 WK), Dose: 0, 300, 600, 1300 PPM IN DIET FOR 104 WK (STUDY DURATION: 104 WK), Tumor Site: Type of Lesion: LIVER: HEPATOCELLULAR ADENOMA, HEPATOCELLULAR CARCINOMA, OR HEPATOBLASTOMA): active; positive | carcinogen call (Species: MOUSE, Strain/Sex: B6C3F1/MALE, Route: ORAL, Dose: 0, 300, 600, 1300 PPM IN DIET FOR 104 WK (STUDY DURATION: 104 WK), Dose: 0, 300, 600, 1300 PPM IN DIET FOR 104 WK (STUDY DURATION: 104 WK), Tumor Site: Type of Lesion: LIVER: HEPATOCELLULAR ADENOMA, HEPATOCELLULAR CARCINOMA, OR HEPATOBLASTOMA, THYROID GLAND: FOLLICULAR CELL ADENOMA): active; positive | carcinogen call (Species: RAT, Strain/Sex: F344/FEMALE, Route: ORAL, Dose: 0, 600, 1300, 2500 PPM IN DIET FOR 104 WK (STUDY DURATION: 104 WK), Dose: 0, 600, 1300, 2500 PPM IN DIET FOR 104 WK (STUDY DURATION: 104 WK)): inactive; negative | carcinogen call (Species: RAT, Strain/Sex: F344/MALE, Route: ORAL, Dose: 0, 600, 1300, 2500 PPM IN DIET FOR 104 WK (STUDY DURATION: 104 WK), Dose: 0, 600, 1300, 2500 PPM IN DIET FOR 104 WK (STUDY DURATION: 104 WK), Tumor Site: Type of Lesion: THYROID GLAND: FOLLICULAR CELL ADENOMA, FOLLICULAR CELL ADENOMA OR CARCINOMA, KIDNEY: RENAL TUBULE ADENOMA OR CARCINOMA): equivocal

CC(=O)N(O)c1ccc(/C=C/c2ccccc2)cc1
carcinogen call (Species: RAT, Strain/Sex: STRAIN-CD/FEMALE, Route: INTRAPERITONEAL, Dose: 0, 10 UMOL/KG BW 2/WK FOR 6 WK (STUDY DURATION: 62 WK), Tumor Site: Type of Lesion: LIVER: NEOPLASTIC NODULE, MAMMARY GLAND: TUMOR, EAR DUCT: TUMOR, PITUITARY GLAND: CARCINOMA, Tumor Site: Type of Lesion: LIVER: NEOPLASTIC NODULE, MAMMARY GLAND: TUMOR, EAR DUCT: TUMOR, PITUITARY GLAND: CARCINOMA): active; positive | carcinogen call (Species: RAT, Strain/Sex: STRAIN-CD/MALE, Route: INTRAPERITONEAL, Dose: 0, 10 UMOL/KG BW 2/WK FOR 6 WK (STUDY DURATION: 62 WK), Tumor Site: Type of Lesion: TESTICLE: MESOTHELIOMA, PANCREAS(ACINUS): ADENOMA, EAR DUCT: CARCINOMA, Tumor Site: Type of Lesion: TESTICLE: MESOTHELIOMA, PANCREAS(ACINUS): ADENOMA, EAR DUCT: CARCINOMA): active; positive

CN1[C@@H]2CC(OC(=O)[C@H](CO)c3ccccc3)C[C@H]1[C@@H]1O[C@@H]12 (stereo partly drawn)
carcinogen call (Species: MOUSE, Strain/Sex: B6C3F1/FEMALE, Route: GAVAGE, Dose: 0, 1, 5, 25 MG/KG IN DISTILLED WATER FOR 104-105 WK (STUDY DURATION: 105 WK), Dose: 0, 1, 5, 25 MG/KG IN DISTILLED WATER FOR 104-105 WK (STUDY DURATION: 105 WK)): inactive; negative | carcinogen call (Species: MOUSE, Strain/Sex: B6C3F1/FEMALE, Route: GAVAGE, Dose: 0, 25 MG/KG IN WATER 5 D/WK FOR 104 WK, CONTROL AND DOSED GROUPS FED AD LIBITUM (STUDY DURATION: 104 WK)): inactive; negative | carcinogen call (Species: MOUSE, Strain/Sex: B6C3F1/FEMALE, Route: GAVAGE, Dose: 0, 25 MG/KG IN WATER 5 D/WK FOR 104 WK, CONTROL GROUP DIET RESTRICTED TO LIMIT WEIGHTS TO 85% OF AD LIBITUM-FED GROUP (S): inactive; negative | carcinogen call (Species: MOUSE, Strain/Sex: B6C3F1/FEMALE, Route: GAVAGE, Dose: 0, 25 MG/KG IN WATER 5 D/WK FOR 104 WK, CONTROL GROUP WAS WEIGHT-MATCHED TO DOSED GROUP (STUDY DURATION: 104 WK)): inactive; negative | carcinogen call (Species: MOUSE, Strain/Sex: B6C3F1/FEMALE, Route: GAVAGE, Dose: 0, 25 MG/KG IN WATER 5 D/WK FOR 157 WK, CONTROL GROUP DIET RESTRICTED TO LIMIT WEIGHTS TO 85% OF AD LIBITUM-FED GROUPS (): inactive; negative | carcinogen call (Species: MOUSE, Strain/Sex: B6C3F1/MALE, Route: GAVAGE, Dose: 0, 1, 5, 25 MG/KG IN DISTILLED WATER FOR 104-105 WK (STUDY DURATION: 105 WK), Dose: 0, 1, 5, 25 MG/KG IN DISTILLED WATER FOR 104-105 WK (STUDY DURATION: 105 WK)): inactive; negative | carcinogen call (Species: MOUSE, Strain/Sex: B6C3F1/MALE, Route: GAVAGE, Dose: 0, 25 MG/KG IN WATER 5 D/WK FOR 104 WK, CONTROL AND DOSED GROUPS FED AD LIBITUM (STUDY DURATION: 104 WK)): inactive; negative | carcinogen call (Species: MOUSE, Strain/Sex: B6C3F1/MALE, Route: GAVAGE, Dose: 0, 25 MG/KG IN WATER 5 D/WK FOR 104 WK, CONTROL GROUP DIET RESTRICTED TO LIMIT WEIGHTS TO 85% OF AD LIBITUM FED GROUP (S): inactive; negative | carcinogen call (Species: MOUSE, Strain/Sex: B6C3F1/MALE, Route: GAVAGE, Dose: 0, 25 MG/KG IN WATER 5 D/WK FOR 104 WK, CONTROL GROUP WAS WEIGHT-MATCHED TO DOSED GROUP (STUDY DURATION: 104 WK)): inactive; negative | carcinogen call (Species: MOUSE, Strain/Sex: B6C3F1/MALE, Route: GAVAGE, Dose: 0, 25 MG/KG IN WATER 5 D/WK FOR 157 WK, CONTROL GROUP DIET RESTRICTED TO LIMIT WEIGHTS TO 85% OF AD LIBITUM-FED GROUPS (): inactive; negative | carcinogen call (Species: RAT, Strain/Sex: F344/FEMALE, Route: GAVAGE, Dose: 1, 5, 25 MG/KG IN DISTILLED WATER FOR 104 WK (STUDY DURATION: 104 WK), Dose: 1, 5, 25 MG/KG IN DISTILLED WATER FOR 104 WK (STUDY DURATION: 104 WK)): inactive; negative | carcinogen call (Species: RAT, Strain/Sex: F344/MALE, Route: GAVAGE, Dose: 0, 1, 5, 25 MG/KG IN DISTILLED WATER FOR 104 WK (STUDY DURATION: 104 WK), Dose: 0, 1, 5, 25 MG/KG IN DISTILLED WATER FOR 104 WK (STUDY DURATION: 104 WK)): inactive; negative

O=C(O)c1cc2ccccc2c(N=Nc2ccc3ccccc3c2S(=O)(=O)O)c1O
carcinogen call (Species: MOUSE, Strain/Sex: SWISS-WEBSTER/FEMALE, Route: DERMAL, Dose: 0, 1% IN 0.1 ML 0.1% SODIUM LAURYL SULFATE 1/WK FOR 18 MO (STUDY DURATION: 18 MO)): inactive; negative | carcinogen call (Species: MOUSE, Strain/Sex: SWISS-WEBSTER/MALE, Route: DERMAL, Dose: 0, 1% IN 0.1 ML 0.1% SODIUM LAURYL SULFATE 1/WK FOR 18 MO (STUDY DURATION: 18 MO)): inactive; negative
